Data from patent US9751842B2, “Phthalazine derivatives” (Merck Patent GmbH, priority 2013, dated 2017).
pIC50: −log10 of the molar value. Where two headings read alike, the source gives them in different places.

Assays:
[1] = target: T1, GST-tagged Tankyrase-2 (873-1166 aa) (Homo sapiens, UniProt Q9H2K2); assay: Tankyrase 2 autoparsylation HTRF enzyme assay; assay type: biochemical
T1 construct: GST-tagged Tankyrase-2 (873-1166 aa)
Description: (§1) Biochemical Activity Testing of Tankyrase 1 and 2: Autoparsylation Assay
(§2) The autoparsylation assay is run in two steps: the enzymatic reaction in which GST-tagged Tankyrase-1, resp Tankyrase-2 transferred biotinylated ADP-ribose to itself from biotinylated NAD as co-substrate and the detection reaction where a time resolved FRET between cryptate labelled anti-GST bound to the GST tag of the enzyme and Xlent® labelled-streptavidin bound the biotin-parsylation residue is analysed. The autoparsylation activity was detectable directly via the increase in HTRF signal.
(§3) The autoparsylation assay is performed as 384-well HTRF® (Cisbio, Codolet, France) assay format in Greiner low volume nb 384-well microtiter plates and is used for high throughput screen. 250 nM GST-tagged Tankyrase-1 (1023-1327 aa), respectively about 250 nM GST-tagged Tankyrase-2 (873-1166 aa) and 5 μM bio-NAD (Biolog, Life science Inst., Bremen, Germany) as co-substrate are incubated in a total volume of 5 μl (50 mM HEPES, 4 mM Mg-chloride, 0.05% Pluronic F-68, 1.4 mM DTT, 0.5% DMSO, pH 7.7) in the absence or presence of the test compound (10 dilution concentrations) for 90 min at 30° C. The reaction is stopped by the addition of 1 μl 50 mM EDTA solution. 2 μl of the detection solution (1.6 μM SA-Xlent® (Cisbio, Codolet, France), 7.4 nM Anti-GST-K® (Eu-labelled anti-GST, Cisbio, Codolet, France) in 50 mM HEPES, 800 mM KF, 0.1° A. BSA, 20 mM EDTA, 0.1% CHAPS, pH 7.0) are added. After 1 h incubation at room temperature the HTRF is measured with an Envision multimode reader (Perkin Elmer LAS Germany GmbH) at excitation wavelength 340 nm (laser mode) and emission wavelengths 615 nm and 665 nm. The ratio of the emission signals is determined. The full value used is the inhibitor-free reaction. The pharmacological zero value used is XAV-939 (Tocris) in a final concentration of 5 μM. The inhibitory values (IC50) are determined using either the program Symyx Assay Explorer® or Condosseo® from GeneData.

[2] = target: T2, GST-tagged Tnks-1 (1023-1327 aa) (Homo sapiens, UniProt O95271); assay: TNKS1 activity ELISA (autoparsylation); assay type: biochemical
T2 construct: GST-tagged Tnks-1 (1023-1327 aa, prepared in-house); made in house
T2 sequence (O95271 1023-1327): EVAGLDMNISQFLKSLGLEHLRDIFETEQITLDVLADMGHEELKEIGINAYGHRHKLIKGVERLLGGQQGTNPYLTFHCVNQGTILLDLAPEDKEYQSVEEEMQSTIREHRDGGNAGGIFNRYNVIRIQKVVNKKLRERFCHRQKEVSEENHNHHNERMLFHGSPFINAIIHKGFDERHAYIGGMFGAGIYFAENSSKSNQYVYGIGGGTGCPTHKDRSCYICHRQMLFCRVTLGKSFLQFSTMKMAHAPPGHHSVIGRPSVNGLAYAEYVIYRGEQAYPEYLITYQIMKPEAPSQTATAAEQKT
Description: (§4) Description of the TNKS1 and TNKS2 ELISA Assay
(§5) Biochemical Activity Testing of TNKS 1 and 2: Activity ELISA (Autoparsylation Assay)
(§6) For analysis of autoparsylation activity of TNKS 1 and 2 an activity ELISA is performed: In the first step GST tagged TNKS is captured on a Glutathione coated plate. Then the activity assay with biotinylated NAD is performed in the absence/presence of the compounds. During the enzymatic reaction GST tagged TNKS transfers biotinylated ADP-ribose to itself from biotinylated NAD as co-substrate. For the detection streptavidin-HRP conjugate is added that binds to the biotinylated TNKS and is thereby captured to the plates. The amount of biotinylated resp. autoparsylated TNKS is detected with a luminescence substrate for HRP. The level of the luminescence signal correlates directly with the amount of autoparsylated TNKS and therefore with activity of TNKS.
(§7) The activity ELISA is performed in 384 well Glutathione coated microtiter plates (Express capture Glutathione coated plate, Biocat, Heidelberg, Germany). The plates are pre-equilibrated with PBS. Then the plates are incubated with 50 μl 20 ng/well GST-tagged Tnks-1 (1023-1327 aa, prepared in-house), respectively GST-tagged Tnks-2 (873-1166 aa, prepared in-house) in assay buffer (50 mM HEPES, 4 mM Mg-chloride, 0.05% Pluronic F-68, 2 mM DTT, pH 7.7) overnight at 4° C. The plates are washed 3 times with PBS-Tween-20. The wells are blocked by incubation at room temperature for 20 minutes with 50 μl blocking buffer (PBS, 0.05% Tween-20, 0.5% BSA). Afterwards the plates are washed 3 times with PBS-Tween-20. The enzymatic reaction is performed in 50 μl reaction solution (50 mM HEPES, 4 mM Mg-chloride, 0.05% Pluronic F-68, 1.4 mM DTT, 0.5% DMSO, pH 7.7) with 10 μM bio-NAD (Biolog, Life science Inst., Bremen, Germany) as co-substrate in the absence or presence of the test compound (10 dilution concentrations) for 1 hour at 30° C. The reaction is stopped by 3 times washing with PBS-Tween-20. For the detection 50 μl of 20 ng/μl Streptavidin, HRP conjugate (MoBiTec, Göttingen, Germany) in PBS/0.05% Tween-20/0.01% BSA are added and the plates are incubated for 30 minutes at room temperature. After three times washing with PBS-Tween-20 50 μl of SuperSignal ELISA Femto Maximum sensitivity substrate solution (ThermoFisherScientific (Pierce), Bonn, Germany) are added. Following a 1 minute incubation at room temperature luminescence signals are measured with an Envision multimode reader (Perkin Elmer LAS Germany GmbH) at 700 nm. The full value used is the inhibitor-free reaction. The pharmacological zero value used is XAV-939 (Tocris) in a final concentration of 5 μM. The inhibitory values (IC50) are determined using either the program Symyx Assay Explorer® or Condosseo® from GeneData.

[3] = target: T3, GST-tagged Tnks-2 (873-1166 aa) (Homo sapiens, UniProt Q9H2K2); assay: TNKS2 activity ELISA (autoparsylation); assay type: biochemical
T3 construct: GST-tagged Tnks-2 (873-1166 aa, prepared in-house); made in house
T3 sequence (Q9H2K2 873-1166): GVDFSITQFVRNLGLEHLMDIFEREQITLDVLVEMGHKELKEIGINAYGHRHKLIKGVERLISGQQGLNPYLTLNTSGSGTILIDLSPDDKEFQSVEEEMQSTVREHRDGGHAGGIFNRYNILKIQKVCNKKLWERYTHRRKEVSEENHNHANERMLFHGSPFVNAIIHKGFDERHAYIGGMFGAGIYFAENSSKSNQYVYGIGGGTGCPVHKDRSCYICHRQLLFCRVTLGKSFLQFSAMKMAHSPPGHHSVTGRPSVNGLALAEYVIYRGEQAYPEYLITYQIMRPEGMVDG
Description: as §4, §5, §6, §7

His-tagged Parp-1 = target: T4, His-tagged Parp-1 (Homo sapiens, UniProt P09874); assay: PARP-1 autoparsylation HTRF assay; assay type: biochemical; settings: 150 min at 23° C
T4 construct: purchased Enzo Life Sciences GmbH, Lörrach, Germany
T4 sequence (P09874 whole entry): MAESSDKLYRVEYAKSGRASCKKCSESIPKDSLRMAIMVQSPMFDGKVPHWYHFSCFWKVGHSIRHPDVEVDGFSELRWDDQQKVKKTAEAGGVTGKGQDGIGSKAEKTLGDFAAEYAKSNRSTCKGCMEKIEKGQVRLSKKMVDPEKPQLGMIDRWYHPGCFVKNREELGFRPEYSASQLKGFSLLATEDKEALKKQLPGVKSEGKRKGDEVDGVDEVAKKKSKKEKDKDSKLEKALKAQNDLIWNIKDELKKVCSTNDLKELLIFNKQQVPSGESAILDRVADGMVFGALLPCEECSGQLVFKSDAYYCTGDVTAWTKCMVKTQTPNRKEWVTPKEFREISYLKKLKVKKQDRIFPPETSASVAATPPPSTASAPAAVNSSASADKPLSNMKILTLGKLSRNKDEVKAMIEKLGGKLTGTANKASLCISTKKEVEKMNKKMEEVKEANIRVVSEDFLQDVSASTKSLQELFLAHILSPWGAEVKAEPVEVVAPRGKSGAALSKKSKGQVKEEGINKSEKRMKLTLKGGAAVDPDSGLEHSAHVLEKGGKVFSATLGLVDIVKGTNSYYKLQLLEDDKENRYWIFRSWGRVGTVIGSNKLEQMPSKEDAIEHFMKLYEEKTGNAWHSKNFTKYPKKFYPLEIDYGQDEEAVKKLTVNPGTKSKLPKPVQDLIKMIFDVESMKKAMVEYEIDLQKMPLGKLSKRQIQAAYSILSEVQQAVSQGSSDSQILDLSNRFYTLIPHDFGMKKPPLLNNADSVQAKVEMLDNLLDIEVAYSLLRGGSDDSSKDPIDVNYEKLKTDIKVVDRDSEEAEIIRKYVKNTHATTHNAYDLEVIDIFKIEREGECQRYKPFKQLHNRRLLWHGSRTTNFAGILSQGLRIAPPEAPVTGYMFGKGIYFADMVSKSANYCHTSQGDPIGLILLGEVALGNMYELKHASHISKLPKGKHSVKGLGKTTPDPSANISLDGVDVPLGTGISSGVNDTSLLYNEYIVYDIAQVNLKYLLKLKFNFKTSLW
Source text: Description of the PARP1 Assay
Biochemical Activity Testing of PARP-1: Autoparsylation Assay
The autoparsylation assay is run in two steps: the enzymatic reaction in which His-tagged Parp-1 transfers biotinylated ADP-ribose/ADP-ribose to itself from biotinylated NAD/NAD as co-substrate and the detection reaction where a time resolved FRET between cryptate labelled anti-His antibody bound to the His tag of the enzyme and Xlent® labelled-streptavidin bound the biotin parsylation residue is analysed. The autoparsylation activity is detectable directly via the increase in HTRF signal.
The autoparsylation assay is performed as 384-well HTRF® (Cisbio, Codolet, France) assay format in Greiner low volume nb 384-well microtiter plates. 35 nM His-tagged Parp-1 (human, recombinant, Enzo Life Sciences GmbH, Lörrach, Germany) and a mixture of 125 nM bio-NAD (Biolog, Life science Inst., Bremen, Germany) and 800 nM NAD as co-substrate are incubated in a total volume of 6 μl (100 mM Tris/HCl, 4 mM Mg-chloride, 0.01% IGEPAL® CA630, 1 mM DTT, 0.5% DMSO, pH 8, 13 ng/μl activated DNA (BPS Bioscience, San Diego, US)) in the absence or presence of the test compound (10 dilution concentrations) for 150 min at 23° C. The reaction is stopped by the addition of 4 μl of the Stop/detection solution (70 nM SA-Xlent® (Cisbio, Codolet, France), 2.5 nM Anti-His-K® (Eu-labelled anti-His, Cisbio, Codolet, France) in 50 mM HEPES, 400 mM KF, 0.1% BSA, 20 mM EDTA, pH 7.0). After 1 h incubation at room temperature the HTRF is measured with an Envision multimode reader (Perkin Elmer LAS Germany GmbH) at excitation wavelength 340 nm (laser mode) and emission wavelengths 615 nm and 665 nm. The ratio of the emission signals is determined. The full value used is the inhibitor-free reaction. The pharmacological zero value used is Olaparib (LClabs, Woburn, US) in a final concentration of 1 μM. The inhibitory values (IC50) are determined using either the program Symyx Assay Explorer® or Condosseo® from GeneData.

[4] = target: T5, GST-tagged Tankyrase-1 (1023-1327 aa) (Homo sapiens, UniProt O95271); assay: Tankyrase 1 autoparsylation HTRF enzyme assay; assay type: biochemical
T5 construct: GST-tagged Tankyrase-1 (1023-1327 aa)
T5 sequence (O95271 1023-1327): as the sequence (O95271 1023-1327) above
Description: as §1, §2, §3

[5] = system: Tankyrase (Axin2 level in DLD1 cells); assay: Cellular inhibition of Tankyrase, Axin2 Luminex assay in DLD1 cells; assay type: cell-based; settings: Homo sapiens, DLD-1, 24 hours, Axin2 level increase, read-out: IC50 Cell assay
Description: Measurement of Cellular Inhibition of Tankyrase
Since Tankyrases have been described to modulate cellular level of Axin2 (Huang et al., 2009; Nature) the increase of Axin2 level is used as read-out for determination of cellular inhibition of Tankyrases in a Luminex based assay.
Cells of the colon carcinoma cell line DLD1 are plated in 96 well plates with 1.5×10^4 cells per well. Next day, cells are treated with a serial dilution of test compound in seven steps as triplicates with a final DMSO concentration of 0.3%. After 24 hours, cells are lysed in lysis buffer (20 mM Tris/HCl pH 8.0, 150 mM NaCl, 1% NP40, 10% Glycerol) and lysates are cleared by centrifugation through a 96 well filter plate (0.65 μm). Axin2 protein is isolated from cell lysates by incubation with a monoclonal anti-Axin2 antibody (R&D Systems #MAB6078) that is bound to fluorescent carboxybeads. Then, bound Axin2 is specifically detected with a polyclonal anti-Axin2 antibody (Cell Signaling #2151) and an appropriate PE-fluorescent secondary antibody. The amount of isolated Axin2 protein is determined in a Luminex^200 machine (Luminex Corporation) according to the manufacturer's instruction by counting 100 events per well. Inhibition of Tankyrase by test compounds results in higher levels of Axin2 which directly correlates with an increase of detectable fluorescence. As controls cells are treated with solvent alone (neutral control) and with a Tankyrase reference inhibitor IWR-2 (3E-06 M) which refers as control for maximum increase of Axin2. For analysis, the obtained data are normalized against the untreated solvent control and fitted for determination of the EC50 values using the Assay Explorer software (Accelrys).

[6] = HTRF autoparsylation, 90 min at 30° C, read-out: IC50 TNKS2 enzyme assay
[7] = activity ELISA, 1 hour at 30° C, read-out: IC50 TNKS1 ELISA
[8] = activity ELISA, 1 hour at 30° C, read-out: IC50 TNKS2 ELISA
[9] = HTRF autoparsylation, 90 min at 30° C, read-out: IC50 TNKS1 enzyme assay

T1 sequence (Q9H2K2 873-1166): as the sequence (Q9H2K2 873-1166) above

| Compound | pIC50 [1, 6] | pIC50 [2, 7] | pIC50 [3, 8] | pIC50 (His-tagged Parp-1) | pIC50 [4, 9] | pIC50 [1] | pIC50 [2] | pIC50 [3] | pIC50 [4] | pIC50 [5] |
| --- | --- | --- | --- | --- | --- | --- | --- | --- | --- | --- |
| O=C(Cc1cccc(OC(F)(F)F)c1)Nc1nncc2ccccc12 [Compound A5, N-phthalazin-1-yl-2-(3-trifluoromethoxyphenyl)-acetamide] | 4.30 to 5.52 | 5.52 to 6.52 | 5.52 to 6.52 | 4.30 to 5.52 | 5.52 to 6.52 |  |  |  |  |  |
| N#Cc1cccc(CC(=O)Nc2nncc3ccccc23)c1 [Compound A6, 2-(3-cyanophenyl)-N-phthalazin-1-yl-acetamide] | 4.30 to 5.52 | 5.52 to 6.52 | 5.52 to 6.52 | 5.52 to 6.52 | 5.52 to 6.52 |  |  |  |  |  |
| O=C(Cc1cccc([N+](=O)[O-])c1)Nc1nncc2ccccc12 [Compound A7, 2-(3-nitrophenyl)-N-phthalazin-1-yl-acetamide] |  |  |  | 5.52 to 6.52 |  | 5.52 to 6.52 | 5.52 to 6.52 | 5.52 to 6.52 | 5.52 to 6.52 |  |
| O=C(Cc1ccc(OC(F)(F)F)cc1)Nc1nncc2ccccc12 [Compound A8, N-phthalazin-1-yl-2-(4-trifluoromethoxyphenyl)-acetamide] | 5.52 to 6.52 | > 6.52 | > 6.52 | 4.30 to 5.52 | > 6.52 |  |  |  |  |  |
| CC(C)(C)c1ccc(CC(=O)Nc2nncc3ccccc23)cc1 [Compound A9, 2-(4-tert-butylphenyl)-N-phthalazin-1-yl-acetamide] | 5.52 to 6.52 | > 6.52 | > 6.52 | 4.30 to 5.52 | 5.52 to 6.52 |  |  |  |  |  |
| O=C(Cc1c(Cl)cccc1Cl)Nc1nncc2ccccc12 [Compound A10, 2-(2,6-dichlorophenyl)-N-phthalazin-1-yl-acetamide] | 4.30 to 5.52 |  |  | 4.30 to 5.52 | 4.30 to 5.52 |  |  |  |  |  |
| CCOc1ccc(CC(=O)Nc2nncc3c(F)cccc23)cc1 [Compound A11, 2-(4-ethoxy-phenyl)-N-(5-fluoro-phthalazin-1-yl)-acetamide] | 4.30 to 5.52 |  |  |  | 4.30 to 5.52 |  |  |  |  |  |
| COc1ccc(CC(=O)Nc2nncc3c(F)cccc23)cc1 [Compound A12, N-(5-fluoro-phthalazin-1-yl)-2-(4-methoxy-phenyl)-acetamide] | 4.30 to 5.52 |  |  |  | 5.52 to 6.52 |  |  |  |  |  |

Continued, values first:

| pIC50 [1, 6] | pIC50 [2, 7] | pIC50 [3, 8] | pIC50 (His-tagged Parp-1) | pIC50 [4, 9] | pIC50 [1] | pIC50 [2] | pIC50 [3] | pIC50 [4] | pIC50 [5] | Compound |
| --- | --- | --- | --- | --- | --- | --- | --- | --- | --- | --- |
| 5.52 to 6.52 | > 6.52 | > 6.52 | 4.30 to 5.52 | 5.52 to 6.52 |  |  |  |  |  | O=C(CCC1CCCCC1)Nc1nncc2ccccc12 [Compound A13, 3-cyclohexyl-N-phthalazin-1-yl-propionamide] |
| 5.52 to 6.52 | > 6.52 | > 6.52 |  | > 6.52 |  |  |  |  | 4.30 to 5.52 | O=C(CCc1ccccc1)Nc1nncc2ccccc12 [Compound A14, 3-phenyl-N-phthalazin-1-yl-propionamide] |
| 4.30 to 5.52 |  |  |  | 4.30 to 5.52 |  |  |  |  |  | Cc1cccc2c(NC(=O)Cc3ccccc3)nncc12 [Compound A19, N-(5-methyl-phthalazin-1-yl)-2-phenyl-acetamide] |
| 4.30 to 5.52 |  |  |  | 4.30 to 5.52 |  |  |  |  |  | COc1ccc(CC(=O)Nc2nncc3c(C)cccc23)cc1 [Compound A21, 2-(4-methoxy-phenyl)-N-(5-methyl-phthalazin-1-yl)-acetamide] |
